US20250100962A1 (CITY OF HOPE, priority 2023, published 2025)
Entries after “also recorded” stand apart in the source; their conditions may differ.

What was measured:
[1] = system: mdx mice; assay: Direct intramuscular injection into Tibialis Anterior muscle of mdx mice; assay type: in vivo, mouse; conditions: for Evans Blue Dye (EBD) positive area (muscle damage): 150 ul of 2 uM daily for 3 days; for amount of satellite cells / satellite cell proliferation (EdU+/Pax7+ within Pax7+ pool): 150 μl of 2 μM daily for three days; for transcript levels of clock regulators and myogenic factors / expression of pro-inflammatory cytokines TNF-α, IL-6 and iNOS: RT-qPCR; for transcript levels of clock regulators and myogenic factors: mdx muscle; for expression of pro-inflammatory cytokines TNF-α, IL-6 and iNOS: mdx TA muscle, 3 daily doses; for reduction of creatine kinase (CK) levels, ex vivo TA explants: media of TA explant cultured 24 hours; for myofiber size distribution (cross section area) / Pax7 and CyclinD1 / new myofiber formation (eMyHC staining) / protein levels of clock regulators Bmal1, CLOCK, Rev-erbα / protein levels of myogenic factors: three daily doses; for Pax7 and CyclinD1 / new myofiber formation (eMyHC staining) / protein levels of clock regulators Bmal1, CLOCK, Rev-erbα / protein levels of myogenic factors: 50 μl of 2 μM
Text: FIGS. 17A-17C. In vivo effect of chlorhexidine on inducing regenerative repair of mdx dystrophic muscle. Based on the effects of CHX on promoting myogenic differentiation, we postulated that it may enhance myogenesis in vivo to promote regenerative repair in dystrophic muscle. […] FIG. 17A: Initial preliminary data was obtained from mice injected with one or two injections (one day apart) of CHX dissolved in DMSO. […] FIG. 17B: Next, we further tested the in vivo effect of CHX by three doses using PBS solution to avoid potential membrane damage by DMSO. […] FIG. 17C: Lastly, we examined the effect of triple CHX injection on clock and myogenic factor proteins in individual and individual mdx muscle. […] Variability observed between individual mice could be due to the in vivo injection.
FIG. 18. In vivo effect of chlorhexidine on inducing nascent myofiber regeneration of mdx dystrophic muscle. To directly examine effect of CHX in vivo injection on dystrophic muscle repair, we performed immunofluorescence staining of embryonic myosin heavy chain (eMyHC) to identify nascent regenerated myofiber using frozen TA cross sections from mdx mice following triple injections. Laminin staining was used to delineate basal lamina of myofiber.
FIGS. 43A-43D. CHX and CM002 promote regenerative myogenesis in dystrophic mdx mice. Based on the effect of CHX and CM002 on promoting regenerative myogenesis, we next tested whether they exert protective effects in dystrophic disease conditions via local intramuscular delivery in the mdx mice, an established model for muscular dystrophy.
FIGS. 44A-44D. CM002 and CHX stimulate satellite cell proliferative expansion and myogenic gene induction in mdx mice. As Pax7 and CyclinD1 levels were increased by CM002 and CHX in mdx TA, we directly examined the proliferation of satellite cells via EdU labeling with co-staining for Pax7 to identify satellite cells.
FIGS. 45A-45D. CM002 and CHX protects against dystrophic muscle damage in mdx mice. Given that local delivery of CHX and CM002 stimulated new myofiber formation to promote regenerative repair, we next examined whether these effects lead to protection against dystrophic injury. […] Most importantly, using ex vivo TA explants, we determined creatine kinase secretion from treated TA muscles as a direct indicator to assess muscle injury.
FIGS. 46A-46D. CHX and CM002 ameliorate inflammatory milieu of muscular dystrophy. Chronic inflammation in dystrophic muscle, due to the persistent muscle damage with sustained degeneration and regeneration cycles, is a significant component of the pathogenic characteristics of muscular dystrophy contributing to muscle wasting. We thus determined potential ameliorative effects of CHX and CM002 on muscle inflammation in the mdx mice. […] To further test whether the reduction of inflammation in muscle could be due to direct modulation of macrophage pro-inflammatory activities, we determined CHX and CM002 effects in primary bone marrow-derived macrophages.

[2] = system: primary preadipocytes; assay: Adipogenic differentiation of primary preadipocytes; assay type: cell-based, mice; conditions: for mature adipocyte formation: 0.5 and 1 μM
Protocol: Primary preadipocyte isolation and adipogenic induction. The stromal vascular fraction containing preadipocytes were isolated from subcutaneous fat pads, as described (Chatterjee, Nam, Guo et al., 2013). Briefly, fat pads were cut into pieces and digested using 0.1% collagenase Type 1 with 0.8% BSA at 37° C. in a horizontal shaker for 60 minutes, passed through Nylon mesh and centrifuged to collect the pellet containing the stromal vascular fraction with preadipocytes. Preadipocytes were cultured in F12/DMEM supplemented with bFGF (2.5 ng/ml), expanded for two passages and subjected to differentiation in 6-well plates at 90% confluency. Adipogenic differentiation was induced for 2 days in medium containing 10% FBS, 1.6 μM insulin, 1 μM dexamethasone, 0.5 mM IBMX, 0.5 μM rosiglitazone before switching to maintenance medium for 4 days with insulin only. Nobiletin at indicated concentrations were added for the entire differentiation time course. Oil-red-O and Bodipy staining. These stainings for neutral lipids during adipogenic differentiation were performed as previously described (Nam et al., 2015). Briefly, for oil-red-O staining, cells were fixed using 10% formalin and incubated using 0.5% oil-red-O solution for 1 hour. Bodipy 493/503 was used at 1 mg/L together with DAPI for 15 minutes, following 4% paraformaldehyde fixation and permeabilization with 0.2% triton-X100. Immunoblot analysis. Total protein was extracted using lysis buffer containing 3% NaCl, 5% Tris-HCl, 10% Glycerol, 0.5% Triton X-10 in MilliQ water with protease inhibitor cocktail. 20-40 μg of total protein was resolved on 10% SDS-PAGE gels followed by immunoblotting on PVDF membranes (Bio-rad). Membranes were developed by chemiluminescence (SuperSignal West Pico, Pierce Biotechnology) and signals were obtained via a chemiluminescence imager (Amersham Imager 680, GE Biosciences).

[3] = system: mdx mouse primary myoblasts; assay: MTT cell viability of mdx mouse primary myoblasts; assay type: cell-based
Protocol: Cells were seeded at 5×10^4 concentration in 100 μl culture medium into 96 wells flat bottom microplates and treated after 24 h with desired compounds and controls. After desired incubation periods, cells were treated with MTT labeling reagent 1× (MTT (3-[4,5-dimethylthiazol-2-yl]-2,5-diphenyltetrazolium bromide labeling reagent, 5 mg/ml in PBS, Roche Cell Proliferation Kit I (MTT)) and Solubilization buffer 1× (10% SDS in 0.01 M HCl and left overnight. Next morning absorbance was measured at 570 nm and 700 nm on microplate (ELISA) reader (TECAN infinite M200pro). The mean and standard deviation values were calculated for each well and graphed.
FIGS. 41A-41D. Effect of Chlorhexidine (CHX) and CM002 treatment on viability of mouse and human myoblasts. To determine potential toxic effects of CHX and CM002, we treated mouse C2C12 myoblast cell line with increasing concentrations from 0.2-5 μM for 48 hours and determined cell viability using the MTT assay (FIG. 41A). […] Considering the inflammatory milieus in dystrophic muscles, we further tested the tolerance of myoblasts to these molecules in the presence of inflammatory stimuli, a cytokine cocktail (CC) consisted of 10 ng/mL IL-1β, 100 ng/mL IFN-γ and 25 ng/mL of TNF-α (FIG. 41B). […] Lastly, human primary myoblasts derived from Duchene Muscular Dystrophy (DMD) patients were used to determine their tolerance to these compounds.

[4] = system: primary bone marrow-derived macrophages; assay: NLRP3 inflammasome and CHOP expression in primary bone marrow-derived macrophages; assay type: cell-based; conditions: for NLRP3 and CHOP with LPS stimulation: LPS challenge; for NLRP3 expression, basal unstimulated: immunoblot
Text: FIGS. 46A-46D. […] Chronic inflammation in dystrophic muscle, due to the persistent muscle damage with sustained degeneration and regeneration cycles, is a significant component of the pathogenic characteristics of muscular dystrophy contributing to muscle wasting. We thus determined potential ameliorative effects of CHX and CM002 on muscle inflammation in the mdx mice.

Compound	Evans Blue Dye (EBD) positive area (muscle damage) [1]	amount of satellite cells [1]	satellite cell proliferation (EdU+/Pax7+ within Pax7+ pool) [1]	transcript levels of clock regulators and myogenic factors [1]	expression of pro-inflammatory cytokines TNF-α, IL-6 and iNOS [1]	reduction of creatine kinase (CK) levels, ex vivo TA explants [1]	myofiber size distribution (cross section area) [1]	Pax7 and CyclinD1 [1]	new myofiber formation (eMyHC staining) [1]	protein levels of clock regulators Bmal1, CLOCK, Rev-erbα [1]	protein levels of myogenic factors [1]	mature adipocyte formation ([2]; six days of differentiation)	NLRP3 and CHOP with LPS stimulation [4]	NLRP3 expression, basal unstimulated [4]	also measured
CCCCCC/C=N/C(=N)NC(=N)Nc1ccc(Cl)cc1 [CM002]	significantly reduced the areas stained positive for EBD	not significantly altered	sufficient to stimulate satellite cells proliferative expansion in dystrophic muscle to a similar degree	corresponding increase of their transcript levels	consistent reduction of expression of the pro-inflammatory cytokines examined	~35%	striking left shift toward smaller myofibers	also induced	increased new myofiber formation	significantly elevated with stronger effect by CM002	elevated protein levels of myogenic factors	strongly inhibited their differentiation; also recorded: dose-dependent reductions by CM002 at 0.5 and 1 μM concentration	suppressed NLRP3 in the presence of LPS without inducing CHOP	able to attenuate its expression	reduction of adipocyte formation in Bmal1-deficient (BMKO) preadipocytes ([2]; six days of differentiation): severely blunted; adipocyte formation, compound given after initial two days of adipogenic induction ([2]; vs presence throughout differentiation): still retained its efficacy of blocking adipocyte formation largely to the same extent; concentration up to which cells remain viable ([3]; mdx, mouse): up to 1 μM; cell death at 2.5 μM ([3]; mdx, mouse, 2.5 μM): significantly less cell death at 2.5 μM
[H]/N=C(\N/C(=N/[H])NCCCCCCNC(=N)NC(=N)Nc1ccc(Cl)cc1)Nc1ccc(Cl)cc1 [CHX, chlorhexidine]	significantly reduced the areas stained positive for EBD	not significantly altered	sufficient to stimulate satellite cells proliferative expansion in dystrophic muscle to a similar degree	corresponding increase of their transcript levels	consistent reduction of expression of the pro-inflammatory cytokines examined	approximately 50%	striking left shift toward smaller myofibers	also induced	increased new myofiber formation	significantly elevated	elevated protein levels of myogenic factors	dose-dependent, marked effect on suppressing mature adipocyte formation	failed to inhibit NLRP3 inflammasome and displayed stimulatory effect at high concentrations accompanied with CHOP induction	able to attenuate its expression	protein expression of clock regulators (CLOCK, Rev-erbα) and myogenic factors (Myf5, Myogenin) ([1]; one or two injections, 50 μl of 2 μM in DMSO): stronger inductions by two doses; Pax7 protein ([1]; three doses in PBS, pooled samples): strongly induced; myogenic factors and Bmal1 protein in individual mdx muscle ([1]; triple injection, n=3): two of three mice injected with CHX demonstrated marked inductions of myogenic factors together with up-regulation of Bmal1 protein; eMyHC staining (nascent regenerated myofiber) ([1]; triple injections, vs PBS): robust eMyHC indicative of newly-regenerated myofibers; FASN, terminal differentiation marker ([2]; day 6 of differentiation): markedly attenuated the terminal differentiation marker of adipocytes, FASN; adipogenic factor induction ([2]; day 6 of differentiation): only resulted in a tendency toward suppressing adipogenic factor induction; concentration causing cell death ([3]; with cytokine cocktail): ≥ 500 nM; concentration inducing CHOP (ER stress marker) [4]: ≥ 1000 nM
